Measured values taken from US20100086520A1, “Compositions, Kits and Uses For Protecting The Skin Against Pathogenic Microorganisms” (OrganoBalance GmbH, priority 2006, published 2010).
Bridge positions count the residues as written; N and C are the ends. Square brackets hold non-standard residues; d marks the D form. Peptide text beside a SMILES is read from it. * marks the point of attachment. Ileψ(thiazoline)Cys = CC[C@H](C)[C@H](N)C1=N[C@H](C(=O)*)CS1; dOrn = NCCC[C@@H](N)C(=O)O

Tests used:
[1] = tested on: Staphylococcus aureus (DSM346); experiment: in-vitro-hole plate assay, growth inhibition of S. aureus in comparison to bacitracin and erythromycin (Example 12); format: cell-based; settings: BHI agar, pre-cut holes; antibiotics at different concentrations, defined numbers of Lactobacillus cells; FIG. 10A/10B
From the text: The degree of growth inhibition of the microorganism(s) of the transient pathogenic skin micro flora in comparison to the inhibition of growth of at least one such microorganism after the use of an antibiotic can preferably be observed in vitro, more preferably in an assay in which a microorganism according to aspect (ii) of the invention, as described herein above, is contacted with one or more microorganisms of the transient pathogenic skin micro flora and the growth of the(se) microorganism(s) of the transient pathogenic skin micro flora is determined. Most preferably, the comparison of growth inhibition can be determined in an “in vitro hole plate assay” as described in the Examples and mentioned herein above. […]
This effect has been compared to commercial antibiotic cream preparations of bacitracin and erythromycin. […] The diameter of the inhibition zones has been measured and the area of inhibition has been calculated thereof. […]

[2] = tested on: Candida albicans; settings: in vivo; cited from earlier work
[3] = tested on: resident flora; settings: infants, after treatment with the antibiotic; cited from earlier work

Compound | growth inhibition of the indicator strain S. aureus (inhibition zone, area of inhibition) [1] | increase of the pathogenic yeast Candida albicans [2] | repression of the resident flora [3]
Lactobacillus delbrückii ssp. delbrückii OB-LB-Sa3 | growth inhibition of S. aureus | – | –
CC[C@H](C)[C@H](N)C1=N[C@H](C(=O)N[C@@H](CC(C)C)C(=O)N[C@H](CCC(=O)O)C(=O)N[C@H](C(=O)N[C@H]2CCCCNC(=O)[C@H](CC(N)=O)NC(=O)[C@@H](CC(=O)O)NC(=O)[C@H](Cc3cnc[nH]3)NC(=O)[C@@H](Cc3ccccc3)NC(=O)[C@H]([C@@H](C)CC)NC(=O)[C@@H](CCCN)NC2=O)[C@@H](C)CC)CS1 [bacitracin] ({Ileψ(thiazoline)Cys}-L[dE]IK[dOrn]I[dF]H[dD]N; lactam 4-C) | growth inhibition of the indictator strain S. aureus has been observed | – | –
CC[C@H]1OC(=O)[C@H](C)[C@@H](O[C@H]2C[C@@](C)(OC)[C@@H](O)[C@H](C)O2)[C@H](C)[C@@H](O[C@@H]2O[C@H](C)C[C@H](N(C)C)[C@H]2O)[C@](C)(O)C[C@@H](C)C(=O)[C@H](C)[C@@H](O)[C@]1(C)O [erythromycin] | growth inhibition of the indictator strain S. aureus has been observed | – | –
CC1(C)S[C@@H]2[C@H](NC(=O)[C@H](N)c3ccc(O)cc3)C(=O)N2[C@H]1C(=O)O [amoxicillin] | – | more than a fourteen-fold increase | about 50%
